# Data from ChEMBL document CHEMBL1138328, “Coumarin-based inhibitors of human NAD(P)H:quinone oxidoreductase-1. Identification, structure-activity, off-target effects and in vitro human pancreatic cancer toxicity” (J Med Chem, 2007).
# pIC50: −log10 of the molar value. Calls of active or inactive are those of the source. The calls are words filed in the database; no cut-off is given here.
# Legend:
# [1] = molecular target: T1, NAD(P)H dehydrogenase [quinone] 1 (Homo sapiens, UniProt P15559)
# Description: Inhibition of human recombinant NQO1 in presence of BSA
# [2] = molecular target: T1, NAD(P)H dehydrogenase [quinone] 1; remark: listed apart in the source
# Description: Inhibition of human recombinant NQO1
# MIA PaCa-2 [3] = experiment: Cytotoxicity against human MIA PaCa2 cells by MTT assay; type: functional, cell-based
# MIA PaCa-2 [4] = experiment: Effect on respiration rate in human MIA PaCa2 cells assessed as oxygen consumption per 10^6 cells at 100 uM; type: functional
# MIA PaCa-2 [5] = experiment: Induction of superoxide formation in human MIA PaCa2 cells; type: functional, cell-based
# MIA PaCa-2 [6] = experiment: Growth inhibition of human MIA PaCa2 cells; type: functional, cell-based
# T1 sequence (P15559 whole entry): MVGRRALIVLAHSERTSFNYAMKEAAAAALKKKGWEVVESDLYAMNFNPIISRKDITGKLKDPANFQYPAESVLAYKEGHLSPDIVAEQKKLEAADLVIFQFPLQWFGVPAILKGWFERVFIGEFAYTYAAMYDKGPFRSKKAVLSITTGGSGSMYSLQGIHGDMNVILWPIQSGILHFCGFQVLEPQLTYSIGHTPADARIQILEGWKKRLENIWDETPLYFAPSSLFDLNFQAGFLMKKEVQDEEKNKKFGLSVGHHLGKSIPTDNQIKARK
Compound,pIC50 [1],pIC50 [2],pIC50 (MIA PaCa-2 [3]),Activity (MIA PaCa-2 [4]) [nmol/min],Activity (MIA PaCa-2 [5]),Activity (MIA PaCa-2 [6])
COc1cc(C(c2c(O)c3ccccc3oc2=O)c2c(O)c3ccccc3oc2=O)ccc1O,5.00,6.19,,,,
O=c1oc2ccccc2c(O)c1Cc1c(O)c2ccccc2oc1=O [DICUMAROL],,,4.12,7,Active,Dose-dependent effect
O=c1c(C(c2ccco2)c2c(O)oc3ccccc3c2=O)c(O)oc2ccccc12,5.23,5.89,,,,
O=c1c(C(c2ccc3ccccc3c2)c2c(O)oc3ccccc3c2=O)c(O)oc2ccccc12,5.07,6.85,,,,
Nc1cc(=O)oc2ccccc12,4.89,5.49,,,,
COc1ccc(C(c2c(O)c3ccccc3oc2=O)c2c(O)c3ccccc3oc2=O)cc1,5.06,6.66,,,,
O=c1c(C(c2cnc3ccccc3c2)c2c(O)oc3ccccc3c2=O)c(O)oc2ccccc12,4.74,6.42,,,,
O=c1oc2ccccc2c(O)c1C1c2ccccc2Oc2c1c(=O)oc1ccccc21 (stereo unspecified),,,3.82,2.5,,Dose-dependent effect
O=c1c(Cc2c(O)oc3cc(O)ccc3c2=O)c(O)oc2cc(O)ccc12,6.46,8.30,3.72,2.6,,Dose-dependent effect
O=C1OC2C=CC=CC2=C2Oc3c(c(=O)oc4ccccc34)C(c3c(O)c4ccccc4oc3=O)C12 (stereo unspecified),6.22,6.60,3.85,2.5,,Dose-dependent effect
O=c1c(C(c2cccs2)c2c(O)oc3ccccc3c2=O)c(O)oc2ccccc12,5.00,6.26,,,,
